Data from patent US20200221740A1, “TERMINALIA FERDINANDIANA LEAF EXTRACT AND PRODUCTS CONTAINING EXTRACT OF TERMINALIA FERDINANDIANA LEAF” (RISING PHOENIX INDUSTRIES PTY LTD, priority 2017, published 2020).

Legend:
[1] = test system: Shewanella frigidimarina strain NCIMB 400; experiment: disc diffusion growth inhibition screening; assay type: cell-based; conditions: S. frigidimarina
Description: Antibacterial screening: Environmental Shewanella strains: Shewanella putrefaciens strain 200, Shewanella baltica strain OS155, Shewanella frigidimarina strain NCIMB 400 and Shewanella loihica strain PV-4 were used. Antibacterial screening was achieved using a modified peptone/yeast extract (PYE) agar containing: 1 g/L peptone, 1.5 g/L yeast extract, 7.5 g/L NaCl, 1 g/L ammonium persulfate, 2.4 g/L HEPES buffer (pH 7.5) and 16 g/L bacteriological agar.
The S. putrefaciens and S. loihica cultures were incubated at 30° C. for 24 h. The S. baltica and S. frigidimarina cultures were incubated at 15° C. for 72 h. All stock cultures were subcultured and maintained in PYE media at 4° C.
Evaluation of antibacterial activity: Antibacterial activity screening of the T. ferdinandiana fruit and leaf extracts was assessed using a modified disc diffusion assay. Briefly, 100 μL of each individual Shewanella spp. was grown separately in 20 mL of fresh nutrient broth until an approximate count of 10^8 cells/mL was achieved. A volume of 100 μL of each bacterial suspension was spread onto nutrient agar plates and the extracts were tested for antibacterial activity using 5 mm sterilised filter paper discs. […]
Plates inoculated with S. putrefaciens or S. loihica cultures were incubated at 30° C. for 24 h. […] The diameters of the inhibition zones were measured to the closest whole millimetre. […]

[2] = test system: Shewanella putrefaciens strain 200; experiment: disc diffusion growth inhibition screening; assay type: cell-based; conditions: S. putrefaciens, 10 μL extract per disc, ampicillin 10 μg, 30° C. 24 h
Description: (§1) Antibacterial screening: Environmental Shewanella strains: Shewanella putrefaciens strain 200, Shewanella baltica strain OS155, Shewanella frigidimarina strain NCIMB 400 and Shewanella loihica strain PV-4 were used. Antibacterial screening was achieved using a modified peptone/yeast extract (PYE) agar containing: 1 g/L peptone, 1.5 g/L yeast extract, 7.5 g/L NaCl, 1 g/L ammonium persulfate, 2.4 g/L HEPES buffer (pH 7.5) and 16 g/L bacteriological agar. The S. putrefaciens and S. loihica cultures were incubated at 30° C. for 24 h. The S. baltica and S. frigidimarina cultures were incubated at 15° C. for 72 h. All stock cultures were subcultured and maintained in PYE media at 4° C. Evaluation of antibacterial activity: Antibacterial activity screening of the […] fruit and leaf extracts was assessed using a modified disc diffusion assay. […] Discs were infused with 10 μL of the […] fruit and leaf extracts, allowed to dry and placed onto the inoculated plates. The plates were left to stand at 4° C. for 2 h before incubation. Plates inoculated with S. putrefaciens or S. loihica cultures were incubated at 30° C. for 24 h. S. baltica or S. frigidimarina cultures were incubated at 15° C. for 72 h. The diameters of the inhibition zones were measured to the closest whole millimetre. Each assay was completed in at least triplicate. Mean values (±SEM) are reported in this study. Ampicillin discs (10 μg) were obtained and used as positive controls to compare antibacterial activity. Filter discs infused with 10 μL of distilled water were used as a negative control.

[3] = test system: Shewanella baltica strain OS155; experiment: disc diffusion growth inhibition screening; assay type: cell-based; conditions: S. baltica
Description: as §1

[4] = test system: Shewanella loihica strain PV-4; experiment: disc diffusion growth inhibition screening; assay type: cell-based; conditions: PV4, S. loihica, 10 μL extract per disc, ampicillin 10 μg, 30° C. 24 h
Description: as §1

[5] = test system: Artemia franciscana nauplii; experiment: Artemia franciscana nauplii lethality assay; conditions: potassium dichromate 1000 μg/mL
Description: Artemia franciscana nauplii toxicity screening: Toxicity was assessed using a modified Artemia franciscana nauplii lethality assay. Briefly, 400 μL of seawater containing ˜53 (mean 52.7, n=125, SD 11.8) A. franciscana nauplii were added to wells of a 48 well plate and immediately used in the bioassay. A volume of 400 μL of the reference toxin or the diluted plant extracts were transferred to the wells and incubated at 25±1° C. under artificial light (1000 Lux). For each plate, a 400 μL seawater negative control was run in triplicate. The wells were assessed at regular intervals and the number of dead counted. The nauplii were deemed dead if no movement of the appendages was observed within 10 seconds. After 24 h, all nauplii were sacrificed and counted to determine the total % mortality per well.
To further quantify the effects of toxin concentration on the initiation of mortality, the extracts were serially diluted in artificial seawater to test across a range of concentrations in the Artemia nauplii bioassay.

Structure (SMILES) | growth inhibitory activity (in words) [1] | zone of inhibition at 10 µg/disc [2] [mm] | growth inhibitory activity (in words) [3] | zone of inhibition at 10 µg/disc [4] [mm] | onset of nauplii death [5] [h] | mortality ([5]; within 5 hours) [%]
CC1(C)S[C@@H]2[C@H](NC(=O)[C@H](N)c3ccccc3)C(=O)N2[C@H]1C(=O)O [ampicillin] | resistant | 8.3 ± 0.6 | unaffected | 19.6 ± 1.3 | – | –
[K+].[K+].[O]=[Cr](=[O])([O-])[O][Cr](=[O])(=[O])[O-] [potassium dichromate] | – | – | – | – | ≤ 3 | 100
